Laboratory results taken from ChEMBL document CHEMBL5042492, “Noncovalent CDK12/13 dual inhibitors-based PROTACs degrade CDK12-Cyclin K complex and induce synthetic lethality with PARP inhibitor” (Eur J Med Chem, 2022).
Calls of active or inactive are those of the source. The calls are words filed in the database; no cut-off is given here.

Experiments:
[1] = target: Protein cereblon/Cyclin-dependent kinase 13 (Homo sapiens) (UniProt Q14004+Q96SW2); assay: Protac activity at human CRBN/CDK13 in human Bel-7402 cells assessed as degradation of CDK13 at 0.1 to 30 uM measured after 24 hrs by Western blotting assay; format: cell-based; settings: dose 0.1-30 µM
Protein cereblon/Cyclin-dependent kinase 13 (Homo sapiens), sequence (Q14004 whole entry, looked up): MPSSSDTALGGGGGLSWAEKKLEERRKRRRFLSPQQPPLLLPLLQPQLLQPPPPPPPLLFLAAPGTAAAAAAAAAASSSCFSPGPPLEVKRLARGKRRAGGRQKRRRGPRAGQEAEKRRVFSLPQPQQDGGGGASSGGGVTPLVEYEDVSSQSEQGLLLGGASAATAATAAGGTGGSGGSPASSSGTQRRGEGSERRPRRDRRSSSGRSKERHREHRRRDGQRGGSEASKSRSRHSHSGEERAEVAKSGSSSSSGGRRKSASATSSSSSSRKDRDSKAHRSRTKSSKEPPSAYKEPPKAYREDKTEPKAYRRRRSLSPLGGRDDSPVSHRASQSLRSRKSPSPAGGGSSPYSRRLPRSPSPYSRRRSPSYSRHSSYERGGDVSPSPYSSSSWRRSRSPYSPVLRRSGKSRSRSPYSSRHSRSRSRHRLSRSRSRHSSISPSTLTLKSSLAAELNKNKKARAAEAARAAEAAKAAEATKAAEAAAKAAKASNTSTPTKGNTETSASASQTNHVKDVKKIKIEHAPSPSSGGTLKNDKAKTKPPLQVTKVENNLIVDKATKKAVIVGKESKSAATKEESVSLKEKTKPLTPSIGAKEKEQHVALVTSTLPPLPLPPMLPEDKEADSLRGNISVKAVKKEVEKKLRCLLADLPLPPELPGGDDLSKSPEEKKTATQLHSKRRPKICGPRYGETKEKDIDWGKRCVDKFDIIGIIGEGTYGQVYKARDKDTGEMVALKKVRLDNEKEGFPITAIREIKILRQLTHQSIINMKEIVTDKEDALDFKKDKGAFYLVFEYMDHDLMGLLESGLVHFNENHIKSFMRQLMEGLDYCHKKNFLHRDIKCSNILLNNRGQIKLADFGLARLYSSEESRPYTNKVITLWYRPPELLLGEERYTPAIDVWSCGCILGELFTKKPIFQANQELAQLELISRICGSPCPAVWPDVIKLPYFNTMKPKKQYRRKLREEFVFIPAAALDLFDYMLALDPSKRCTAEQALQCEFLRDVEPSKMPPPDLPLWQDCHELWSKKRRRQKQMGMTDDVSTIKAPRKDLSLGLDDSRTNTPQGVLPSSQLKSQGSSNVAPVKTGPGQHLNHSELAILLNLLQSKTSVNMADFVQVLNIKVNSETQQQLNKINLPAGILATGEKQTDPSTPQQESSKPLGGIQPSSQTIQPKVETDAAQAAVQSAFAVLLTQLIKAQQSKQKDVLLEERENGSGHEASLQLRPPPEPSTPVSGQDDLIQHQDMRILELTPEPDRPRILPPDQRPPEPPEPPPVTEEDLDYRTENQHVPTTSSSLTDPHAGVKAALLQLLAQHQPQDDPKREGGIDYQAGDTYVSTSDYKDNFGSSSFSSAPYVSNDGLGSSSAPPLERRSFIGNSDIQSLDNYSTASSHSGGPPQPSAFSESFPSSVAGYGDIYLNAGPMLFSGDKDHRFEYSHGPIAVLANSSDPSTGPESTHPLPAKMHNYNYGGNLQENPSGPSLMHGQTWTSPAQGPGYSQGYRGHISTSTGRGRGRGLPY
Protein cereblon/Cyclin-dependent kinase 13 (Homo sapiens), sequence (Q96SW2 whole entry, looked up): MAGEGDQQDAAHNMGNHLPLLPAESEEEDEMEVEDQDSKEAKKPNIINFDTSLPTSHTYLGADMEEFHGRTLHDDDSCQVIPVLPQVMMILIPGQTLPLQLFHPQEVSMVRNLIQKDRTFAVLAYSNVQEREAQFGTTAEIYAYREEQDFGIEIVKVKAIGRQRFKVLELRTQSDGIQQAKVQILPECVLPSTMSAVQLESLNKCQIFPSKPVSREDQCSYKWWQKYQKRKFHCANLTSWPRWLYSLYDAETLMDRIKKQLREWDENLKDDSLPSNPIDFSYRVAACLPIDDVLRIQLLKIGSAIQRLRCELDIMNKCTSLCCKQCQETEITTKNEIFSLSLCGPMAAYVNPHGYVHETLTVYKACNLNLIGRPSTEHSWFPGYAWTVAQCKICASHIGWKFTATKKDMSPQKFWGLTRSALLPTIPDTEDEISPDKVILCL

[2] = target: T1, Protein cereblon/Cyclin-K/Cyclin-dependent kinase 12 (Homo sapiens, UniProt O75909+Q9NYV4+Q96SW2); assay: Protac activity at human CRBN/CDK12/CycK in human MDA-MB-231 cells assessed as CycK mRNA expression measured after 6 hrs by RT-qPCR method; format: cell-based
[3] = tested on: MDA-MB-231; assay: Synergistic antiproliferative activity against human MDA-MB-231 cells in presence of 1 uM of Olaparib at 1 uM for 10 days by SRB staining based clone formation assay relative to control; format: functional; settings: MDA-MB-231, 240 h, time 10 day
[4] = target: T1, Protein cereblon/Cyclin-K/Cyclin-dependent kinase 12; assay: Protac activity at human CRBN/CDK12/CycK in human MDA-MB-231 cells assessed as degradation of CDK12 measured after 24 hrs by Western blotting assay; format: cell-based
Target sequence in this assay (O75909 whole entry): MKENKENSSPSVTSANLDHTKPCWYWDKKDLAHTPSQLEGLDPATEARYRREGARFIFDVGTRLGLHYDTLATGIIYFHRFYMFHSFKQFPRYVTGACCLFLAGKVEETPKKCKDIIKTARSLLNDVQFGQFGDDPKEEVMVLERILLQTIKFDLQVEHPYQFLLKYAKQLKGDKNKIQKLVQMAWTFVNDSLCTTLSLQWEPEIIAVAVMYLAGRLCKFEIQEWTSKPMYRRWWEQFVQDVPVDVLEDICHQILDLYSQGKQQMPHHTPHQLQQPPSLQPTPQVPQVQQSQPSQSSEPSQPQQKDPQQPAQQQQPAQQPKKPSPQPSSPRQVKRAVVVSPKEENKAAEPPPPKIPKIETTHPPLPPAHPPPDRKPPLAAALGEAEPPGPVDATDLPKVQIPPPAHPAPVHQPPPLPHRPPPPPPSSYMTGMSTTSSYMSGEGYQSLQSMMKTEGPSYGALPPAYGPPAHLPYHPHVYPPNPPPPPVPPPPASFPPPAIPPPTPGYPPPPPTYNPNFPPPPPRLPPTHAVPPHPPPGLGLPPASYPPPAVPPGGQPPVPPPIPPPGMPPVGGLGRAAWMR
Target sequence in this assay (Q9NYV4 whole entry): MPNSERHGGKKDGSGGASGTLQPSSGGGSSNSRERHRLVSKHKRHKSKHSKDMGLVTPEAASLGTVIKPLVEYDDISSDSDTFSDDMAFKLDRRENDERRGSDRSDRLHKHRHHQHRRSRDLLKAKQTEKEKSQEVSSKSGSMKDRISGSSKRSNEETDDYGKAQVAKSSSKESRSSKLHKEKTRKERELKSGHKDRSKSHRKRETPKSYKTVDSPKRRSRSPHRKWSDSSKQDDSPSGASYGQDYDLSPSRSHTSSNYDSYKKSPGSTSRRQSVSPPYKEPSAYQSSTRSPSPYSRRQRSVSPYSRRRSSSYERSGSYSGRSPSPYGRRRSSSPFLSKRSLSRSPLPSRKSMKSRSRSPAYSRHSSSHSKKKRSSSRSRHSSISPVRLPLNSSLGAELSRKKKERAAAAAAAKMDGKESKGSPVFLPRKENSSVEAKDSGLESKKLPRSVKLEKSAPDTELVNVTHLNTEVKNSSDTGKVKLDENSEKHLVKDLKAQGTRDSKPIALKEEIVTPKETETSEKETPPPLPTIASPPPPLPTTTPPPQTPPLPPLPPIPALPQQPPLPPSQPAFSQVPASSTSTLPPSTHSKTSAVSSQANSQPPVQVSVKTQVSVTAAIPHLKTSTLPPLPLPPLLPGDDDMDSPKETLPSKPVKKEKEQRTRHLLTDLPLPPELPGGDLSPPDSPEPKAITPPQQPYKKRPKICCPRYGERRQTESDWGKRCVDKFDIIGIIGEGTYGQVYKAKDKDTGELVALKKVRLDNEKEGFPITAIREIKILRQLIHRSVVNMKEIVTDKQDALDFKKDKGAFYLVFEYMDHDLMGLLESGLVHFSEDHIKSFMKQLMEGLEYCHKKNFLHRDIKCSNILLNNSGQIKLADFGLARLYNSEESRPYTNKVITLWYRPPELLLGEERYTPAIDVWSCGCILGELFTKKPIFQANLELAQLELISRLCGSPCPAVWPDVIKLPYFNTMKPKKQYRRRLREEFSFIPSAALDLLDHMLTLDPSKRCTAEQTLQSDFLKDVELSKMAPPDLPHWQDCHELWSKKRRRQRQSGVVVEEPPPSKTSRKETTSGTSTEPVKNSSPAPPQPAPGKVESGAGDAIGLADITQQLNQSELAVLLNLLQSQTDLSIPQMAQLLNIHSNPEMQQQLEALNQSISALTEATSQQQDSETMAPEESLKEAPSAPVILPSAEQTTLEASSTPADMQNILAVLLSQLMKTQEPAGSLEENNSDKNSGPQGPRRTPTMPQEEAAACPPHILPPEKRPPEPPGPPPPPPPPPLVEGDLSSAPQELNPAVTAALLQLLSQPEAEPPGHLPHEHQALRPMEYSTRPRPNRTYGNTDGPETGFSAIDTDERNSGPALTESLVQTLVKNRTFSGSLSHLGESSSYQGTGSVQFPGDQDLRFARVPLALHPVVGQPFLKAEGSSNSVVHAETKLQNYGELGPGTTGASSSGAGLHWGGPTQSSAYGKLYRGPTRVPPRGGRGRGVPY
Target sequence in this assay (Q96SW2 whole entry): as the sequence (Q96SW2 whole entry, looked up) above

[5] = target: T1, Protein cereblon/Cyclin-K/Cyclin-dependent kinase 12; assay: Protac activity at human CRBN/CDK12/CycK in human MDA-MB-231 cells assessed as degradation of CycK measured after 24 hrs by Western blotting assay; format: cell-based
Target sequence in this assay (O75909 whole entry): as the sequence (O75909 whole entry) above
Target sequence in this assay (Q9NYV4 whole entry): as the sequence (Q9NYV4 whole entry) above
Target sequence in this assay (Q96SW2 whole entry): as the sequence (Q96SW2 whole entry, looked up) above

[6] = target: T1, Protein cereblon/Cyclin-K/Cyclin-dependent kinase 12; assay: Protac activity at human CRBN/CDK12/CycK in human MDA-MB-231 cells assessed as downregulation of ATR measured after 6 hrs by RT-qPCR method; format: cell-based
[7] = target: T1, Protein cereblon/Cyclin-K/Cyclin-dependent kinase 12; assay: Protac activity at human CRBN/CDK12/CycK in human MDA-MB-231 cells assessed as downregulation of ATM measured after 6 hrs by RT-qPCR method; format: cell-based
[8] = target: T1, Protein cereblon/Cyclin-K/Cyclin-dependent kinase 12; assay: Protac activity at human CRBN/CDK12/CycK in human MDA-MB-231 cells assessed as degradation of CK1alpha up to 30 uM measured after 24 hrs by Western blotting assay; format: cell-based; settings: dose microM <=30, time 24.0 hrs
[9] = target: T1, Protein cereblon/Cyclin-K/Cyclin-dependent kinase 12; assay: Protac activity at human CRBN/CDK12/CycK in human MDA-MB-231 cells assessed as degradation of Cyclin T1 up to 30 uM measured after 24 hrs by Western blotting assay; format: cell-based; settings: dose microM <=30, time 24.0 hrs
[10] = target: T1, Protein cereblon/Cyclin-K/Cyclin-dependent kinase 12; assay: Protac activity at human CRBN/CDK12/CycK in human Bel-7402 cells assessed as degradation of CDK9 upto 30 uM measured after 24 hrs by Western blotting assay; format: cell-based; settings: dose microM <=30, time 24.0 hrs
[11] = target: T1, Protein cereblon/Cyclin-K/Cyclin-dependent kinase 12; assay: Protac activity at human CRBN/CDK12/CycK in human Bel-7402 cells assessed as CDK12 mRNA expression measured after 6 hrs by RT-qPCR method; format: cell-based
[12] = target: T1, Protein cereblon/Cyclin-K/Cyclin-dependent kinase 12; assay: Protac activity at human CRBN/CDK12/CycK in human MDA-MB-231 cells assessed as RNAP2 CTD Ser2 phosphorylation level at 0.1 to 30 uM measured after 24 hrs by Western blotting assay; format: cell-based; settings: dose 0.1-30 µM
[13] = target: T1, Protein cereblon/Cyclin-K/Cyclin-dependent kinase 12; assay: Protac activity at human CRBN/CDK12/CycK in human Bel-7402 cells assessed as degradation of CDK12 at 3 uM measured after 24 hrs by Western blotting assay; format: cell-based
[14] = target: T1, Protein cereblon/Cyclin-K/Cyclin-dependent kinase 12; assay: Protac activity at human CRBN/CDK12/CycK in human Bel-7402 cells assessed as CycK mRNA expression measured after 6 hrs by RT-qPCR method; format: cell-based
[15] = target: T1, Protein cereblon/Cyclin-K/Cyclin-dependent kinase 12; assay: Protac activity at human CRBN/CDK12/CycK in human Bel-7402 cells assessed as degradation of CDK12 measured after 24 hrs by Western blotting assay; format: cell-based
Target sequence in this assay (O75909 whole entry): as the sequence (O75909 whole entry) above
Target sequence in this assay (Q9NYV4 whole entry): as the sequence (Q9NYV4 whole entry) above
Target sequence in this assay (Q96SW2 whole entry): as the sequence (Q96SW2 whole entry, looked up) above

[16] = target: T1, Protein cereblon/Cyclin-K/Cyclin-dependent kinase 12; assay: Protac activity at human CRBN/CDK12/CycK in human MDA-MB-231 cells assessed as degradation of CDK9 up to 30 uM measured after 24 hrs by Western blotting assay; format: cell-based; settings: dose microM <=30, time 24.0 hrs
[17] = target: T1, Protein cereblon/Cyclin-K/Cyclin-dependent kinase 12; assay: Protac activity at human CRBN/CDK12/CycK in human MDA-MB-231 cells assessed as degradation of CDK12 at 3 uM measured after 24 hrs by Western blotting assay; format: cell-based
[18] = tested on: MDA-MB-231; assay: Synergistic antiproliferative activity against human MDA-MB-231 cells in presence of 3 uM of Olaparib at 1 uM measured after 10 days by Chou-Talalay method; format: functional; settings: time 10 day
[19] = target: T1, Protein cereblon/Cyclin-K/Cyclin-dependent kinase 12; assay: Protac activity at human CRBN/CDK12/CycK in human Bel-7402 cells assessed as degradation of Cyclin H upto 30 uM measured after 24 hrs by Western blotting assay; format: cell-based; settings: dose microM <=30, time 24.0 hrs
[20] = target: T1, Protein cereblon/Cyclin-K/Cyclin-dependent kinase 12; assay: Protac activity at human CRBN/CDK12/CycK in human Bel-7402 cells assessed as degradation of CK1alpha upto 30 uM measured after 24 hrs by Western blotting assay; format: cell-based; settings: dose microM <=30, time 24.0 hrs
[21] = tested on: MDA-MB-231; assay: Synergistic antiproliferative activity against human MDA-MB-231 cells in presence of 1 uM of Olaparib at 3 uM measured after 10 days by SRB staining based clone formation assay relative to control; format: functional; settings: MDA-MB-231, 240 h, time 10 day
[22] = target: T1, Protein cereblon/Cyclin-K/Cyclin-dependent kinase 12; assay: Protac activity at human CRBN/CDK12/CycK in human MDA-MB-231 cells assessed as degradation of Cyclin H up to 30 uM measured after 24 hrs by Western blotting assay; format: cell-based; settings: dose microM <=30, time 24.0 hrs
[23] = target: T1, Protein cereblon/Cyclin-K/Cyclin-dependent kinase 12; assay: Protac activity at human CRBN/CDK12/CycK in human Bel-7402 cells assessed as degradation of CycK at 1 to 3 uM for 24 hrs in presence of MG132 by Western blotting assay; format: cell-based; settings: dose 1-3 µM
[24] = tested on: MDA-MB-231; assay: Synergistic antiproliferative activity against human MDA-MB-231 cells in presence of 3 uM of Olaparib at 3 uM measured after 10 days by SRB staining based clone formation assay relative to control; format: functional; settings: MDA-MB-231, 240 h, time 10 day

CC(C)n1cnc2c(NCc3nc4cc(F)c(NCCCCCCCCNC(=O)COc5cccc6c5C(=O)N(C5CCC(=O)NC5=O)C6=O)cc4[nH]3)nc(N3CCOCC3)nc21 (centres undefined)
Activity [1]: Active
Activity [2]: inactive
inhibition at 1 µM [3]: 67.8%
DC50 [4]: 416 nM
DC50 [5]: 412 nM
Activity [6]: Active
Activity [7]: Active
Activity [8]: inactive
Activity [9]: inactive
Activity [10]: inactive
Activity [11]: inactive
Activity [12]: Active
Activity [13]: Active
Activity [14]: inactive
DC50 [15]: 416 nM
Activity [16]: inactive
Activity [17]: Active
CI [18]: 0.75
Activity [19]: inactive
Activity [20]: inactive
inhibition at 3 µM [21]: 99.2%
Activity [22]: inactive
Activity [23]: inactive
inhibition at 3 µM [24]: 99.8%
